According to ChEMBL document CHEMBL1201862, “PubChem BioAssay data set” (2004):
The source made the active and inactive calls.

How the values were obtained:
[1] = target: T1, Probable nicotinate-nucleotide adenylyltransferase (Staphylococcus aureus (strain N315), UniProt P65502); format: functional, Staphylococcus aureus subsp. aureus N315; details: read-out: IC50_Mean;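 for IC50 Mean: confirmatory dose-response retesting of NadD inhibitor hits first found in an ultra-high-throughput screen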
[2] = target: T1, Probable nicotinate-nucleotide adenylyltransferase; format: functional, Staphylococcus aureus subsp. aureus N315
[3] = inhibitors of HIV Env-driven cell fusion, dose response, cherry-pick (AID 652057); format: functional, cell-based
[4] = inhibitors of clade B AD8 Env fusion, dose response, cell-based, cherry-pick (AID 652062); format: functional;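 note: luciferase signal from cell-cell fusion driven by HIV-1 clade B AD8 Env; potency is for inhibitors of fusion seen as a drop in luminescence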
[5] = ZM109 Env clade C HIV-1 fusion inhibitors, dose response, HeLa effector, CEM target cells, luciferase, cherry-pick (AID 652058); format: functional, cell-based
Beta-galactosidase = Beta-galactosidase (Escherichia coli, UniProt Q8VNN2); test: Dose response counterscreen for EBI2 assay utilizing the enzyme, b-galactosidase.; format: functional
Chain of Beta-galactosidase (Q8VNN2 whole entry): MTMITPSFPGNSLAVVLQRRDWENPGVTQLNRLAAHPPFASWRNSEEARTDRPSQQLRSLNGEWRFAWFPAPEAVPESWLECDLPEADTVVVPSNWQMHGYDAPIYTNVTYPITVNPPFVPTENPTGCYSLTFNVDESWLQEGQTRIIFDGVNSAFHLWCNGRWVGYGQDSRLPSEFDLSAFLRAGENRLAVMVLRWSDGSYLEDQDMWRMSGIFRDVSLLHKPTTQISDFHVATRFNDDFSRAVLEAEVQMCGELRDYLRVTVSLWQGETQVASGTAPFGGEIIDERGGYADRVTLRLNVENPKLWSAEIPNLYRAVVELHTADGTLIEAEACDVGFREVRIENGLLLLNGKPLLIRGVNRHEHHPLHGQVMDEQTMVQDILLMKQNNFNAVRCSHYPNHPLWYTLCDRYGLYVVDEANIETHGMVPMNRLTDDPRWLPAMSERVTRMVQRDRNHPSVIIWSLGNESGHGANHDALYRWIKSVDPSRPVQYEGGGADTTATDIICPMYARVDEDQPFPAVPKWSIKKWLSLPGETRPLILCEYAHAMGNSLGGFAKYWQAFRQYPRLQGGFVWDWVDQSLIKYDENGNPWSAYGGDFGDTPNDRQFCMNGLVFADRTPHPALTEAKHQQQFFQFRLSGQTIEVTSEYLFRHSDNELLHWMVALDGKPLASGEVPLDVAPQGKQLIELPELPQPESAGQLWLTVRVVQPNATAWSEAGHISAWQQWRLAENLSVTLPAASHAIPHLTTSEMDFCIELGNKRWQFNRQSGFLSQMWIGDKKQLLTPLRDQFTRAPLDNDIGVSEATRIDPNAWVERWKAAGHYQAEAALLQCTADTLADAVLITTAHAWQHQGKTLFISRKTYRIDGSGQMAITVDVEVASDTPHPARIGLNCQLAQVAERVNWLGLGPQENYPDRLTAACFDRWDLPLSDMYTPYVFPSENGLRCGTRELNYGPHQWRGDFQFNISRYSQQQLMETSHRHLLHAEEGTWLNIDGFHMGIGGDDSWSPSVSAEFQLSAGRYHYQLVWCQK

[6] = target: T2, Small ubiquitin-related modifier 1 (Homo sapiens, UniProt P63165); test: inhibitors of SUMO1 peptide binding, dose response, biochemical, fluorescence polarization, uHTS hits (AID 624382); format: functional; details: read-out: IC50_Mean
T2 sequence (P63165 whole entry): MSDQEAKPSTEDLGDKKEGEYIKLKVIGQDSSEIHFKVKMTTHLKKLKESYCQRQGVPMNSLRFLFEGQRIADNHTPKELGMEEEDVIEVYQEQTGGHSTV

[7] = target: Induced myeloid leukemia cell differentiation protein Mcl-1 (Homo sapiens, UniProt Q07820); format: functional
Chain of Induced myeloid leukemia cell differentiation protein Mcl-1 (Q07820 whole entry): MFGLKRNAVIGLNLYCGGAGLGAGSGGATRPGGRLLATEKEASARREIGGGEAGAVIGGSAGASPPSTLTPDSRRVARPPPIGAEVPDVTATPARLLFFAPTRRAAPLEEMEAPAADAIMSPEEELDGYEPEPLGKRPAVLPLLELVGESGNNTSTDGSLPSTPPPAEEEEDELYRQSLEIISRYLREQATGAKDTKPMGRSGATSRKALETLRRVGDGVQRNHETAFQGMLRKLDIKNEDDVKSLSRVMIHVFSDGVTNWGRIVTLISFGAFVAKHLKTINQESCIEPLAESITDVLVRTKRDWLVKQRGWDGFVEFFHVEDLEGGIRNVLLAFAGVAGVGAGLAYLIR

[8] = target: T2, Small ubiquitin-related modifier 1; test: inhibitors of SUMO1 partner interactions, dose response, biochemical, FRET (AID 624383); format: functional; details: read-out: IC50_Mean
Large T antigen = Large T antigen (Simian virus 40, UniProt P03070); format: functional, Betapolyomavirus macacae;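 note: Confirmatory-stage PubChem screen for compounds that inhibit SV40 T antigen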
Chain of Large T antigen (P03070 whole entry): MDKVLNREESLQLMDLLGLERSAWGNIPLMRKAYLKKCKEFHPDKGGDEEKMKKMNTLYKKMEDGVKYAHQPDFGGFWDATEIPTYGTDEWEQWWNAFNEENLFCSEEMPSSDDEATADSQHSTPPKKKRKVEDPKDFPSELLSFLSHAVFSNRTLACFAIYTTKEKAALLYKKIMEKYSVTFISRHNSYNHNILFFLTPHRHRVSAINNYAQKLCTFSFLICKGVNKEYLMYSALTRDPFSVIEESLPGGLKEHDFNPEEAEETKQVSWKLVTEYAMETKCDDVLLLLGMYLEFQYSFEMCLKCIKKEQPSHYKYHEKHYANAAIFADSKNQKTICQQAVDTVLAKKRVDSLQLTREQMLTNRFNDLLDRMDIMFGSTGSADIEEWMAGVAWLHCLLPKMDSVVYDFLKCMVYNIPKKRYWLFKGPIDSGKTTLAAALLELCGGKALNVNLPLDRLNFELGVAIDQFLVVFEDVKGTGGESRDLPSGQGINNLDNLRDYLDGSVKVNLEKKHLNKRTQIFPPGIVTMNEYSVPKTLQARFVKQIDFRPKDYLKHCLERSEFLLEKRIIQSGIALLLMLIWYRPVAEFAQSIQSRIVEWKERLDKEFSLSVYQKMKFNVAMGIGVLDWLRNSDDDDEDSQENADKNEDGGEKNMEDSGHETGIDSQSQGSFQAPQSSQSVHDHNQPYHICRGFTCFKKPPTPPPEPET

[9] = intracellular Trypanosoma cruzi inhibitors in host cells – cell-based, plate reader, cherry-pick samples, set 3, dose response (AID 651818); format: functional;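 note: compounds incubated with infected cells for about four days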
Leucine aminopeptidase = target: T3, Leucine aminopeptidase (Plasmodium falciparum 3D7, UniProt Q8IL11); test: P. falciparum M17LAP inhibitors, primary screen, biochemical, fluorogenic H-Leu-NHMec substrate, 1536-well (AID 1619); format: functional
T3 sequence (Q8IL11 whole entry): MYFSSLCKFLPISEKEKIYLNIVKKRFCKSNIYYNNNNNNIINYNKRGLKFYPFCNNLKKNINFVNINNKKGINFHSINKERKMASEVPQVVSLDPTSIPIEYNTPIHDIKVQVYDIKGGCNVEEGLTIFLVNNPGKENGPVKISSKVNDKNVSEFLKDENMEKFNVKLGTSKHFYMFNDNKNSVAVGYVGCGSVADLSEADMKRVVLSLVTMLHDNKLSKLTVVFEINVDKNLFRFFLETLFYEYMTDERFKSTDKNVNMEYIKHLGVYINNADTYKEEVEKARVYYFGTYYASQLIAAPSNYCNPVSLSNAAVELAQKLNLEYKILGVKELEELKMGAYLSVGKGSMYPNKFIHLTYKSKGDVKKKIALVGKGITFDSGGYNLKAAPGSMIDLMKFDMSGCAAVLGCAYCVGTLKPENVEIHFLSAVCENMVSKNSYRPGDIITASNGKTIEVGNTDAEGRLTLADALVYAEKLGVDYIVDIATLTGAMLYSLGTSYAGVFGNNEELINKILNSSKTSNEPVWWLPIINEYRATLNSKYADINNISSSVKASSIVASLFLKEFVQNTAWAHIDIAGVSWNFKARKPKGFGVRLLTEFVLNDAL

[10] = target: T4, Polyadenylate-binding protein 1 (Homo sapiens, UniProt P11940); test: PABP1 MLLE–PAM2 interaction inhibitors, dose response, miRNA deadenylation inhibitor project, biochemical, fluorescence polarization, Cy5-PAM2 peptide, secondary (AID 602260); format: functional; details: read-out: IC50_Mean
T4 sequence (P11940 whole entry): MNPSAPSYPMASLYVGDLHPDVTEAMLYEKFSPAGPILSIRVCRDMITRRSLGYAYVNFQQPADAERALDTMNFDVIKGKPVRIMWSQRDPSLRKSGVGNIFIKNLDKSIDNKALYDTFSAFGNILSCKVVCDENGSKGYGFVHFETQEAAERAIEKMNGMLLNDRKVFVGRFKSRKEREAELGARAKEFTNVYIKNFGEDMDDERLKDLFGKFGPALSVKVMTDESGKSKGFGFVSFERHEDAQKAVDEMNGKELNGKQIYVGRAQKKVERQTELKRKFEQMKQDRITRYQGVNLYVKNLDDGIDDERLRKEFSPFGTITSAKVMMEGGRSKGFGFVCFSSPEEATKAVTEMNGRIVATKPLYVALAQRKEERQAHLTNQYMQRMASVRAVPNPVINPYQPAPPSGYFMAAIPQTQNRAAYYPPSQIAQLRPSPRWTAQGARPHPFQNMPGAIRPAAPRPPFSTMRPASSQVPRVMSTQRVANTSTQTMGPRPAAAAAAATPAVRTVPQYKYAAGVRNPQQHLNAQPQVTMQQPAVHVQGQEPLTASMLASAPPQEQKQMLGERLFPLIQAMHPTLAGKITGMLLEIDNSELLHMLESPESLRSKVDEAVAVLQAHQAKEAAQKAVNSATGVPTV

[11] = target: T4, Polyadenylate-binding protein 1; test: PABP1 MLLE–PAM2 binding inhibitor potency, dose response, biochemical, fluorescence polarization, FITC-PAM2 peptide (AID 602259); format: functional; details: read-out: IC50_Mean
[12] = target: T5, High affinity choline transporter 1 (Homo sapiens, UniProt Q9GZV3); test: CHT inhibitors, dose response, cell-based, 5-point CRC, membrane potential dye (AID 504840); format: functional
T5 sequence (Q9GZV3 whole entry): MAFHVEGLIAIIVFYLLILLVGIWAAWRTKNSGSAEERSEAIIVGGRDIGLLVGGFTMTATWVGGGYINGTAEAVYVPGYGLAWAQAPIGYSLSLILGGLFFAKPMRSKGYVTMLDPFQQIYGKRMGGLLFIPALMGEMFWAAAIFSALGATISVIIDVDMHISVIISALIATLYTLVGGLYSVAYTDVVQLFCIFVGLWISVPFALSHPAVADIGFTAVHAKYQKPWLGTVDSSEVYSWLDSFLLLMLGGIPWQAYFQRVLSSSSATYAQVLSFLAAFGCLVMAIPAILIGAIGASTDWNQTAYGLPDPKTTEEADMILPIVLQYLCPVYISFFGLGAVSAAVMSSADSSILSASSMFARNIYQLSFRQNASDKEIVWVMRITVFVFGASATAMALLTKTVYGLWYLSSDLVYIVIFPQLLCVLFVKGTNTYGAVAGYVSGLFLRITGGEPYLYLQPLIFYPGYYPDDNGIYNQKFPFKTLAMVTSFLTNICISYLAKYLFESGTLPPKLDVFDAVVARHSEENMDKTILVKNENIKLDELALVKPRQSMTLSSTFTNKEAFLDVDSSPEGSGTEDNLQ

[13] = microbe, parasite or virus in culture; format: functional; details: Mycobacterium tuberculosis
[14] = target: 26S proteasome non-ATPase regulatory subunit 14 (Homo sapiens, UniProt O00487); test: inhibition of proteasome subunit RPN11 – biochemical, fluorescence polarization, uHTS hits, confirmation (AID 602368); format: functional
Chain of 26S proteasome non-ATPase regulatory subunit 14 (O00487 whole entry): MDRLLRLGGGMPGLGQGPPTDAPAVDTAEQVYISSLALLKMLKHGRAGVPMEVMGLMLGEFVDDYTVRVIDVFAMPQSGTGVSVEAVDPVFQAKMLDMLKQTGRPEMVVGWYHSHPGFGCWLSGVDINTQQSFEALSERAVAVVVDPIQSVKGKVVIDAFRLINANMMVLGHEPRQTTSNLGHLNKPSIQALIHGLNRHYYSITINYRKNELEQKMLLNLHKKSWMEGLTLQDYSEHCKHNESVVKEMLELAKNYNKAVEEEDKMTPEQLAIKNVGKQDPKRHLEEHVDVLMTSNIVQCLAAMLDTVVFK

[15] = target: 72 kDa type IV collagenase (Homo sapiens, UniProt P08253); test: Dose Response validation of uHTS RPN11 inhibitor hits using a MMP-2 Fluorescence assay.; format: functional
Chain of 72 kDa type IV collagenase (P08253 whole entry): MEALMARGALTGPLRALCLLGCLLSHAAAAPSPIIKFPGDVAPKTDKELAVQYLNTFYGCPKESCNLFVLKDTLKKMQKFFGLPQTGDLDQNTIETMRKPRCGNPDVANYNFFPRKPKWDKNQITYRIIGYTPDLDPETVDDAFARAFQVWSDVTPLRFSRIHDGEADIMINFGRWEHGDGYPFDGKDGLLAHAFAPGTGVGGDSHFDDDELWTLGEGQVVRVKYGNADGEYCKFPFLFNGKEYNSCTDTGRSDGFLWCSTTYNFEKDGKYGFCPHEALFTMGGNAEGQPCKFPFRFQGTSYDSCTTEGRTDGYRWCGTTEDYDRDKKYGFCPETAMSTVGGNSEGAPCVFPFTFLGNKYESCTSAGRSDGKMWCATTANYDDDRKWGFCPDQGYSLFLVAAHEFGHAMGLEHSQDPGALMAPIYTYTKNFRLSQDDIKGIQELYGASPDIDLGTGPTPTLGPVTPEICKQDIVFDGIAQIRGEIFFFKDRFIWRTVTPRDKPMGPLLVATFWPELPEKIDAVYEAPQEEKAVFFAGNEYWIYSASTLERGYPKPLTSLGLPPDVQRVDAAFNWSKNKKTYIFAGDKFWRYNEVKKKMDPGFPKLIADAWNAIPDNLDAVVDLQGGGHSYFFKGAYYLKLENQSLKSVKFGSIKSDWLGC

Prothrombin = Prothrombin (Bos taurus, UniProt P00735); test: thrombin inhibition, dose response, biochemical, fluorescence polarization, uHTS hits (AID 602369); format: functional

T1 sequence (P65502 whole entry): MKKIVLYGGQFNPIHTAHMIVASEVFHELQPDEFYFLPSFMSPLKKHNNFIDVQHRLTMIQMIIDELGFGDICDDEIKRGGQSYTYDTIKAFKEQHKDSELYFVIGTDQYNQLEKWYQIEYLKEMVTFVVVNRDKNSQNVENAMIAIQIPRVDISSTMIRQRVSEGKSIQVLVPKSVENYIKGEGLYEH

## N#CC1=C(S)N=C(N)C(c2nc(-c3ccccc3)cs2)C12CCCCC2 (centres undefined)
[1]
  IC50: 23.2 µM (active)
[2]
  IC50: 10.4 µM (active)

## C[C@@H]1CN([C@@H](C)CO)S(=O)(=O)c2ccc(C3=CCCCC3)cc2O[C@@H]1CN(C)S(=O)(=O)c1ccc(F)cc1
[3]
  AC50: 3.34 µM (active)
[4]
  AC50: 3.53 µM (active)
[5]
  AC50: 1.35 µM (active)

## N#C/C(=C\c1ccccc1)C(=O)Nc1cc(S(=O)(=O)N2CCOCC2)ccc1N1CCCC1
Beta-galactosidase
  IC50: > 80 µM (inactive)

## O=c1c(-c2c(O)cc(O)c3c(=O)cc(-c4ccc(O)cc4)oc23)c(-c2ccc(O)cc2)oc2cc(O)cc(O)c12
[6]
  IC50: > 66.6 µM (inactive)
[7]
  IC50: 2.73 µM (not active)
[8]
  IC50: 9.2 µM (active)

## NC(=O)c1ccc2c(=O)n3c(-c4cc(Cl)c(N)c(Cl)c4)csc3nc2c1
[6]
  IC50: > 66.6 µM (inactive)
[8]
  IC50: 13.4 µM (active)

## COc1ccc(/C=C2/C(=O)NC(=S)N(C3CC3)C2=O)cc1CN1C(=O)c2ccccc2C1=O
[7]
  IC50: 5.54 µM (active)
Large T antigen
  IC50: 48.5 µM (active)

## C[C@@H]1CN([C@@H](C)CO)C(=O)Cc2cc(NC(=O)Nc3ccc(C(F)(F)F)cc3)ccc2O[C@@H]1CN(C)S(=O)(=O)c1ccc(F)cc1
[9]
  AC50: 6.4 µM (active)

## COc1ccccc1CNC(=O)C[C@H]1C[C@@H]2c3cc(NS(=O)(=O)c4ccc(F)cc4)ccc3O[C@@H]2[C@H](CO)O1
[3]
  AC50: < 0.26 µM (active)
[4]
  AC50: < 0.26 µM (active)
[5]
  AC50: < 0.26 µM (active)

## COc1ccc(NC(=O)CSc2nc(O)c(Cc3ccccc3)c(=O)[nH]2)cc1
Leucine aminopeptidase
  IC50: 10.2 µM (active)
[10]
  IC50: > 66 µM (inactive)
[11]
  IC50: > 66 µM (inactive)

## C=CCN(CC=C)S(=O)(=O)c1ccc2nc(NC(=O)C(C)C)sc2c1
[12]
  IC50: 13.8 µM (active)

## O=C(/C=C/c1ccc(Cl)cc1)N1CCN(c2ccc(Cl)cc2[N+](=O)[O-])CC1
Beta-galactosidase
  IC50: > 80 µM (inactive)
[13]
  CC50: > 40 µM (active)

## C[C@H]1CN([C@@H](C)CO)S(=O)(=O)c2ccc(-c3cccc(C#N)c3)cc2O[C@H]1CN(C)Cc1cccc(F)c1
[3]
  AC50: 45.7 µM (active)
[5]
  AC50: 43.1 µM (active)

## COc1ccc(C=C2SC(=S)N(CCCC(=O)Nc3ccc(C(=O)O)c(O)c3)C2=O)cc1OC
[14]
  IC50: 26.2 µM (active)
[15]
  IC50: > 100 µM (inactive)
Prothrombin
  IC50: 35.3 µM (active)

## Cc1ccc(S(=O)(=O)Nc2ccc3c(c2)C(=O)N([C@H](C)CO)C[C@H](C)[C@H](CN(C)S(=O)(=O)c2ccc(Cl)cc2)O3)cc1
[9]
  AC50: 4.35 µM (active)
